For this series, the target named is ATP-dependent translocase ABCB1 (Mus musculus, UniProt P21447). Nature of the series: TP_TRANSPORTER: increase in brain concentration in mdr1a(-/-) mouse. Format: functional, organism-based. Particulars: in vivo.

SMILES strings stand for the structures.

Chain of ATP-dependent translocase ABCB1 (P21447 whole entry): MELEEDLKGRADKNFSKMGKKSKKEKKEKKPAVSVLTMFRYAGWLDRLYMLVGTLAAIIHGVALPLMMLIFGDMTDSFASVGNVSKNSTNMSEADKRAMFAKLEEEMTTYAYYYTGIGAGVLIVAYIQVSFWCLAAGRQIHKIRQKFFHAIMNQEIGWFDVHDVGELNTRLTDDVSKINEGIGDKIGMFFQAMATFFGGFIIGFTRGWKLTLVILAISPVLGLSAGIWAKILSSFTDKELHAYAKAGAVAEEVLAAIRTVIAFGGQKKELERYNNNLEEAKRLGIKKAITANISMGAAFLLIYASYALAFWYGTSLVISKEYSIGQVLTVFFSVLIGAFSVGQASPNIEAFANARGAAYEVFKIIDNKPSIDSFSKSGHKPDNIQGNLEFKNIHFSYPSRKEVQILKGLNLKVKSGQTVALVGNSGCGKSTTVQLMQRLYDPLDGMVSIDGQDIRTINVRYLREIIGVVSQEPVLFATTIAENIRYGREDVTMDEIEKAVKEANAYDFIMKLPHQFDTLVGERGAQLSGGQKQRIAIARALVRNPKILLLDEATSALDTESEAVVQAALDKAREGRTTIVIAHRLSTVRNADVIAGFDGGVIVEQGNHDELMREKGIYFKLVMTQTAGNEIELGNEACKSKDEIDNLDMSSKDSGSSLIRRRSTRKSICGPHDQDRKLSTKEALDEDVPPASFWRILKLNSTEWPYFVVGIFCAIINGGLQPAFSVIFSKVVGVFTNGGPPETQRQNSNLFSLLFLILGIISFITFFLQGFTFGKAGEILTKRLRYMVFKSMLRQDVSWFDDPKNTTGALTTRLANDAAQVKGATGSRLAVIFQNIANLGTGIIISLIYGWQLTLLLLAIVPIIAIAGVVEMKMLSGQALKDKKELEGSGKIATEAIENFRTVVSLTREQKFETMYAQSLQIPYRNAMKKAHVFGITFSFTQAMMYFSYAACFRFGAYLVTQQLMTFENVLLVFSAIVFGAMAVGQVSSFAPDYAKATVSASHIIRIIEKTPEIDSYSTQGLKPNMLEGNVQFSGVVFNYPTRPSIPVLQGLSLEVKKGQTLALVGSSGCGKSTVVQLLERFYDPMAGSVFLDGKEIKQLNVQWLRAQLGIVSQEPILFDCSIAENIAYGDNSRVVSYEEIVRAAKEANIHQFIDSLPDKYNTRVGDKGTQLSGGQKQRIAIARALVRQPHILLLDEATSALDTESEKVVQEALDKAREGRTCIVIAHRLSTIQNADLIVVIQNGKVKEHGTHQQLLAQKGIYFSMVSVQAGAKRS

For the compound `C[C@]12CCC(=O)C=C1CC[C@@H]1[C@@H]2[C@@H](O)C[C@@]2(C)[C@H]1CC[C@]2(O)C(=O)CO` [HYDROCORTISONE], the Activity result was “substrate [+]”.
